# Source: patent publication US4732970A, “Antitumor amino acid and peptide derivatives of 1,4-bis(aminoalkyl and hydroxy-aminoalkyl)amino)-5,8-dihydroxyanthraquinones” (priority 1986, dated 1988)
# Columns and labels:
# [1] = system: lymphocytic leukemia P388; assay: Lymphocytic Leukemia P388 Test; type: in vivo, BDF1 mice; conditions: for Median Survival: BDF1 mice
# Procedure, shortened: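 BDF1 mice (5–6 per group) were inoculated i.p. with 10^6 P388 cells, then dosed i.p. on days 1, 5 and 9 at various doses. Survival was followed for 60 days, and median survival time and the treated/control (T/C) survival ratio were calculated.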
# [2] = system: melanotic melanoma B16 tumor; assay: Melanotic Melanoma B16 test; type: in vivo, BDF1 mice; conditions: for Median Survival: BDF1 mice; for T/C × 100 (%): ratio of survival time treated/control
# Procedure: The animals used were BDFl mice, all of the same sex, weighing a minimum of 17 g and all within a 3 g weight range. There were 12 animals per test group. A 1 g portion of melanotic melanoma B16 tumor was homogenized in 10 ml of cold balanced salt solution and a 0.5 ml aliquot of the homogenate was implanted intraperitoneally into each of the test mice. The test compounds were administered intraperitoneally on days 1, 5 and 9 (relative to tumor inoculation) at various doses. The animals were weighed and survivors recorded on a regular basis for 60 days. The median survival time and ratio of survival time for treated (T)/control (C) animals were calculated. The positive control compound was 1,4-bis[(2-aminoethyl)amino]-5,8-dihydroxyanthraquinone, dihydrochloride (U.S. patent application Ser. No. 87,354, filed Oct. 23, 1979).
# [3] = dose 0.75 mg/kg intraperitoneally on days 1, 5 and 9
# [4] = dose 0.75 mg/kg intraperitoneally on days 1, 5 and 9, ratio of survival time treated/control
# [5] = dose 1.5 mg/kg intraperitoneally on days 1, 5 and 9
# [6] = dose 1.5 mg/kg intraperitoneally on days 1, 5 and 9, ratio of survival time treated/control
# [7] = dose 3 mg/kg intraperitoneally on days 1, 5 and 9
# [8] = dose 3 mg/kg intraperitoneally on days 1, 5 and 9, ratio of survival time treated/control
SMILES,"Median Survival [1, 3]","T/C × 100 (%) [1, 4]","Median Survival [1, 5]","T/C × 100 (%) [1, 6]","Median Survival [1, 7]","T/C × 100 (%) [1, 8]","Median Survival [2, 3]","T/C × 100 (%) [2, 3]","Median Survival [2, 5]","T/C × 100 (%) [2, 5]","Median Survival [2, 7]","T/C × 100 (%) [2, 7]","response vs control in vivo at 0.75 mg/kg ([1]; Mus musculus, P388, ip, dose 0.75 mg/kg intraperitoneally on days 1, 5 and 9, ratio of survival time treated/control, read-out: T/C × 100 (%))","response vs control in vivo at 1.5 mg/kg ([1]; Mus musculus, P388, ip, dose 1.5 mg/kg intraperitoneally on days 1, 5 and 9, ratio of survival time treated/control, read-out: T/C × 100 (%))","response vs control in vivo at 3 mg/kg ([1]; Mus musculus, P388, ip, dose 3 mg/kg intraperitoneally on days 1, 5 and 9, ratio of survival time treated/control, read-out: T/C × 100 (%))"
"C[C@@H](O)[C@H](N)C(=O)NCCNc1ccc(NCCNC(=O)[C@@H](N)[C@@H](C)O)c2c1C(=O)c1c(O)ccc(O)c1C2=O.O=C(O)C(F)(F)F.O=C(O)C(F)(F)F (relative stereo) [Example 26, [2S-(2R*,2'R*,3S*,3'S*)]-N,N'-[(9,10-Dihydro-5,8-dihydroxy-9,10-dioxo-1,4-anthracenediyl)bis(imino-2,1-ethanediyl)]bis[2-amino-3-hydroxybutanamide]bis(trifluo roacetate)]",21.0 days,210%,22.5 days,225%,33.5 days,335%,35.0 days,206%,39.5 days,232%,40.0 days,235%,,,
"Br.Br.Br.Br.NCCCC[C@H](N)C(=O)NCCNc1ccc(NCCNC(=O)[C@@H](N)CCCCN)c2c1C(=O)c1c(O)ccc(O)c1C2=O (relative stereo) [Example 33, [S-(R*,R*)]-N,N'-[(9,10-Dihydro-5,8-dihydroxy-9,10-dioxo-1,4-anthracenediyl)bis(imino-2,1-ethanediyl)]bis[2,6-diaminohexanamide], tetrahydrobromide]",23.0 days,230%,33.0 days,330%,13.0 days,130%,26.5 days,156%,37.5 days,221%,25.5 days,162%,,,
"Cl.Cl.NCC(=O)NCCNc1ccc(NCCNC(=O)CN)c2c1C(=O)c1c(O)ccc(O)c1C2=O [Example 19, N,N'-[(9,10-Dihydro-5,8-dihydroxy-9,10-dioxo-1,4-anthracenediyl)bis(imino-2,1-ethanediyl)]bis[2-amino-acetamide], dihydrochloride]",22.0 days,,24.0 days,,34.5 days,,27.5 days,162%,28.0 days,165%,37.0 days,218%,183%,200%,288%
